Patent US11345659B2, “Pipecolic esters for inhibition of the proteasome” (THE BOARD OF REGENTS OF THE UNIVERSY OF TEXAS SYSTEM, priority 2018, dated 2022)
Entries after “also recorded” stand apart in the source; their conditions may differ.

What was measured:
[1] = biological target: T1, 20 S human housekeeping proteasome (Homo sapiens, UniProt P25787+P25789); assay: ChT-L peptidase activity of 20 S proteasome activated with Rpt5 peptide; format: biochemical; details: tRpt5 added last (compound 3 before tRpt5), n=3
T1 construct: purified from erythrocytes; purchased Enzo Life Sciences, Inc. (Farmingdale, N.Y.); host or cells: human erythrocytes

20 S proteasome = biological target: T2, 20 S proteasome (Homo sapiens, UniProt P25787+P25789); assay: T-L peptidase activity of tRpt5-activated 20 S core; format: biochemical; details: core activated with tRpt5
T2 construct: purified from erythrocytes; purchased Enzo Life Sciences, Inc. (Farmingdale, N.Y.); host or cells: human erythrocytes

[2] = Pilot toxicity study in mice
Experimental: Six injections were performed on Mondays, Wednesdays, and Fridays for two weeks, and the weight and overall condition of the mice were monitored.

[3] = system: human cultured androgen-resistant prostate cancer PC3 cells; assay: Scratch test with PC3 cells; format: cell-based; details: 1 μM, 24 hrs, 0.5 mm gap
Experimental: The “scratch test” was performed with human cultured androgen-resistant prostate cancer PC3 cells. The surface of growing confluent cells was scratched to produce a 0.5 mm wide gap. The scratch was photographed at time 0 hrs. and the cells were cultured with vehicle (DMSO; 1:1000) or with 1 μM of compound 3. After 24 hrs the scratch in control culture was almost entirely closed.

[4] = biological target: 20 S proteasome and 19 S regulatory particle (Homo sapiens, UniProt P25787+P25789); assay: In vitro reconstruction of 26 S: activation of 20 S core by 19 S regulatory particle; format: biochemical; details: pretreatment 10 minutes RT with 1 μM, 2:1 19 S:20 S, with ATP
Experimental: The 26 S proteasome can be reconstructed in vitro from the purified core (20 S) and regulatory particle (19 S) protein complexes. Activation of the core is considered a measure of effectiveness of the reconstruction. […] The reconstruction was carried out in the presence of ATP (1 mM ATP, 0.5 mM MgCl2, 0.5 mM dithiothreitol), as required for the optimal conditions of the 20 S-19 S binding. Averages and SD from three independent experiments are presented.

mTOR = biological target: T3, mTOR (Homo sapiens, UniProt P42345+P62942); assay: Western blot of S6 phosphorylation in RPMI 8226 cells; format: cell-based; details: RPMI 8226, 24 hours; rapamycin 2 nM, compound 3 and B1 0.2 μM
T3 construct: endogenous in cells; host or cells: RPMI 8226 (ATCC)
Experimental: Human multiple myeloma RPMI 8226 cells were purchased from American Type Culture Collection (ATCC; Manassas, Va.) and cultured according to ATCC specifications. […] The content of live cells was determined by excluding the Trypan Blue-stained cells. The cells were counted with TC20 Automated Cell Counter (Bio-Rad Laboratories, Hercules, Calif.) and EC50 was calculated with Origin Pro 2017 (OriginLab Corporation, Northampton, Mass.). When indicated, the cells were harvested, washed twice in PBS, resuspended in dilution buffer and stored in −80° C. To prepare crude lysates the thawed preparations were vortexed with glass beads and centrifuged for 5 min 5,000×g (4° C.). The supernate was centrifuged for 20 min 14,000×g. The resulting supernate was used as “crude lysate.” SDS-PAGE was carried in 12% acrylamide, Tris-glycine gels from Invitrogen. Chameleon Duo (Li-Cor) and Rainbow RPN800E (GE Healthcare) molecular weight standards were separated on each gel alongside lysates. The proteins were transferred to nitrocellulose membrane in a semi-dry system. The membranes were probed with specific primary antibodies from Life Technologies (S6, PS6) and Li-Cor (COX IV), and then with secondary antibodies from Li-Cor. In each experiment visualization of S6, PS6 and COX IV was performed on the same membrane with Odyssey Infrared Imaging System (Li-Cor). […]

[5] = 10 and 30 mg/kg intravenously, six injections in two weeks

COc1cc(CCCOC(=O)[C@@H]2CCCCN2C(=O)OCc2ccccc2)cc(OC)c1OC [Compound 3, 1-benzyl 2-(3-(3,4,5-trimethoxyphenyl)propyl) (S)-piperidine-1,2-dicarboxylate]
remaining ChT-L activity [1]: 56% | effect on T-L peptidase (20 S proteasome): not affected | animals' behavior [2, 5]: No differences in the animals' behavior were noted | body weight versus control mice [2, 5]: did not differ significantly | toxicity for mice ([2]; highest tested dose 30 mg/kg): non-toxic for mice up to a highest tested dose of 30 mg/kg | closure of scratch (migration and proliferation) [3]: the scratch was still visible | activation of 20 S core by 19 S [4]: strongly attenuated the activation, by about two-thirds | activity of mTOR (phosphorylation of S6) (mTOR): neither B1 nor compound 3 affected the activity of mTOR; also recorded: did not inhibit the S6 phosphorylation
